Source: patent US10028961B2, “Therapeutically active compounds and their methods of use” (AGIOS PHARMACEUTICALS, INC., priority 2013, dated 2018)

Legend:
[1] = molecular target: IDH1 wt/IDH1 R132H heterodimer (Homo sapiens (Human), UniProt O75874, R132H); experiment: In vitro assay for IDH1m R132H inhibitors, IDH1 wt/IDH1 R132H heterodimer, NADPH depletion (diaphorase/resazurin); type: biochemical; settings: IDH1 wt/R132H heterodimer, NADPH/NADP, not saturated; read-out: IDH1 wt/R132H NADPH/NADP IC50 not saturated
In short: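 Purified IDH1wt-his/IDH1R132H-flag heterodimer (sf9 co-expression) pre-incubated 1 hr at room temperature with compound and NADPH before α-KG addition. Remaining NADPH read by diaphorase/resazurin conversion to fluorescent resorufin, 5 min at 25° C. Compounds diluted 1:50 from DMSO; IC50 determined.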

IDH2 R140Q [2] = molecular target: T1, IDH2 R140Q (Homo sapiens (Human), UniProt P48735, R140Q); experiment: In vitro assay for IDH2m R140Q inhibitors, cofactor depletion assay, 16 hr preincubation with NADPH/NADP; type: biochemical; settings: read-out: IDH2 R140Q 16 hr NADPH/NADP IC50; 16 hrs preincubation with enzyme, 5 uM NADPH and 750 uM NADP
Text: The following describes the experimental procedures used to obtain data on column 6 of Table 5.
The reaction is terminated by the addition of a second enzyme, diaphorase, and a corresponding substrate, resazurin. Diaphorase reduces resazurin to the highly fluorescent resorufin with the concomitant oxidation of NADPH to NADP, both halting the IDH2 reaction by depleting the available cofactor pool and facilitating quantitation of the amount of cofactor remaining after a specific time period through quantitative production of an easily detected fluorophore.
The test compound is then incubated for 16 hrs at room temperature with the enzyme and cofactors before starting the IDH2 reaction with the addition of 10 μl of substrate mix containing 8 mM α-KG (final concentration 1.6 mM) in the buffer described above. After a further 1 hour of incubation at room temperature, the reaction is halted and the remaining NADPH measured through conversion of resazurin to resorufin by the addition of 25 μl Stop Mix (36 μg/ml diaphorase enzyme and 60 μM resazurin; in buffer).

[3] = molecular target: IDH1 wt/IDH1 R132C heterodimer (Homo sapiens (Human), UniProt O75874, R132C); experiment: In vitro assay for IDH1m R132C inhibitors, IDH1 wt/IDH1 R132C heterodimer, NADPH depletion (diaphorase/resazurin); type: biochemical; settings: NADPH/NADP
Procedure: The following describes the experimental procedures that can be used to obtain data on columns 2 and 4 of Table 4 and column 2 of Table 5.
In the primary reaction, the reduction of α-KG acid to 2-HG is accompanied by a concomitant oxidation of NADPH to NADP. The amount of NADPH remaining at the end of the reaction time is measured in a secondary diaphorase/resazurin reaction in which the NADPH is consumed in a 1:1 molar ratio with the conversion of resazurin to the highly fluorescent resorufin.
The mixture of compound, enzyme, and cofactor is pre-incubated at room temperature for 1 hr prior to the addition of alpha-ketoglutarate. To perform the secondary reaction, 10 uL of 1× buffer containing 36 μg/ml diaphorase and […] resazurin is added to the primary reaction and incubated for a further 5 minutes at 25° C. Florescence is read on a Spectramax platereader at Ex 544 Em 590. Compounds or compound dilutions are prepared in 100% DMSO concentration and diluted 1:50 into the final reaction. […] IC50s are determined.
IDH1 or IDH2 wildtype (wt) and mutant heterodimers are expressed and purified by methods known in the art. For example, IDH1wt/R132m heterodimer is expressed and purified as follows. Co-expression of IDH1wt-his and IDH1R132C-flag is carried out in sf9 insect cells. Cells (25 g) are resuspended in 250 ml of 50 mM Tirs, 500 mM NaCl, pH7.4, at 4° C. with stirring. Cells are disrupted with 4 passes through an M-Y110 Micro fluidizer (Microfluidics) set to 500 psi, and then centrifuged at 22,000 rcf for 20 min at 4° C. The supernatant is harvested and loaded at 15 cm/h on a Histrap FF 5*1 ml column (GE) which is equilibrated with 50 mM Tirs, 500 mM NaCl, pH7.4. Host cell contaminants are removed by washing the column with equilibration buffer followed by equilibration buffer containing 20 mM imidazole and 60 mM imidazole to baseline. IDH1wt-his homodimer and IDH1wt-his/IDH1R132C-flag are eluted by equilibration buffer containing 250 mM imidazole. Fractions eluted by 250 mM imidazole are pooled together and loaded at 15 cm/h onto a column pre-packed with 10 ml ANTI-FLAG® M2 Affinity Gel (Sigma), the column is equilibrated with 50 mM Tris, 500 mM NaCl, pH7.4. After washing with equilibration buffer, IDH1wt-his/IDH1R132C-flag heterodimer is eluted by equilibration buffer containing flag peptide (0.2 mg/ml). Aliquots of IDH1wt-his/IDH1R132C-flag are flash frozen in liquid N2 and stored at −80° C. Same conditions are used for the purification of IDH1wt-his/IDH1R132H-flag.

[4] = molecular target: IDH1-R132H homodimer enzyme (Homo sapiens (Human), UniProt O75874, R132H); experiment: In vitro assay IDH1-R132H homodimer, NADPH depletion assay with NADPH/NADP preincubation; type: biochemical; settings: 5 μM NADPH and 37.5 μM NADP
In short: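 Conversion of alpha-ketoglutarate to 2-hydroxyglutarate tracked by NADPH depletion. Reaction started with 5 mM alpha-ketoglutarate plus NADPH substrate mix (50 μl total), 60 min at room temperature. Leftover NADPH quantified via diaphorase/resazurin fluorescence.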

IDH2 R140Q [5] = molecular target: T1, IDH2 R140Q; experiment: In vitro assay for IDH2m R140Q inhibitors, cofactor depletion assay; type: biochemical; settings: IDH2 R140Q enzyme
In short: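 Remaining cofactor measured fluorimetrically: diaphorase/resazurin Stop Mix […], halting the reaction. Before that, mutant enzyme and compound sat 1 h at RT, then substrate mix (4 μM NADPH, 1.6 mM α-KG) was added for 16 h at RT.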

[6] = test system: U87MG pLVX-IDH2 R140Q-neo cells; experiment: U87MG pLVX-IDH2 R140Q-neo cell based assay, 2-HG by LC-MS; settings: Homo sapiens, U-87 MG
[7] = molecular target: IDH1-R132 homodimer enzyme (R132H) (Homo sapiens (Human), UniProt O75874, R132H); experiment: In vitro assay IDH1-R132H homodimer, NADPH depletion assay; type: biochemical
Procedure: (§1) The following describes the experimental procedures that can be used to obtain data on columns 3 and 6 of Table 4.
(§2) A test compound is prepared as 10 mM stock in DMSO and diluted to 50× final concentration in DMSO, for a 50 μl reaction mixture. IDH enzyme activity converting alpha-ketoglutarate to 2-hydroxyglutaric acid is measured using a NADPH depletion assay. In the assay the remaining cofactor is measured at the end of the reaction with the addition of a catalytic excess of diaphorase and resazurin, to generate a fluorescent signal in proportion to the amount of NADPH remaining. […] The reaction is started with the addition of 10 μl of Substrate Mix ([…], 5 mM alpha-ketoglutarate, in Assay Buffer) and the mixture is incubated for 90 minutes at room temperature.

IDH1 R132C = IDH1 R132C (Homo sapiens (Human), UniProt O75874, R132C); experiment: In vitro assay IDH1 R132C homodimer, NADPH depletion assay; type: biochemical
Procedure: as §1, §2
The concentration of NADPH and alpha-ketoglutarate in the Substrate Buffer is 20 μM and 1 mM, respectively.

HT1080 cells = experiment: Cellular assay for IDH1m R132C inhibitors, 2-HG by LC-MS in HT1080 cells; type: cell-based; settings: Homo sapiens, HT-1080
In short: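 HT1080 cells at 5000 cells/well were treated with compound (0.2% DMSO final). After 48 h, 2-HG in the medium was measured by LC-MS. Viability was read by CellTiter-Glo luminescence at 72 h.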

Sequence of IDH1-R132H homodimer enzyme (O75874 whole entry R132H): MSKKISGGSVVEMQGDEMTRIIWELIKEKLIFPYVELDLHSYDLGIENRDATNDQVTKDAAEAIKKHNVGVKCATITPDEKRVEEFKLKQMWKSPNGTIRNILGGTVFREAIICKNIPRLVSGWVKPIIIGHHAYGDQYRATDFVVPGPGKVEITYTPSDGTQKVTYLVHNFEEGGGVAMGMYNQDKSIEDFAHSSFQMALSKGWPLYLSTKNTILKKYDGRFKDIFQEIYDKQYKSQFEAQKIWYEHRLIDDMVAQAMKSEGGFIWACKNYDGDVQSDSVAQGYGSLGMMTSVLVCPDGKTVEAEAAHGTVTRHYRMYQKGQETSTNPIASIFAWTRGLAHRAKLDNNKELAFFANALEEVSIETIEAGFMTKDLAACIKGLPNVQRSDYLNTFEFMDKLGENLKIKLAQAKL
Sequence of IDH1-R132 homodimer enzyme (R132H) (O75874 whole entry R132H): as above
Sequence of IDH1 wt/IDH1 R132H heterodimer (O75874 whole entry R132H): as above
Sequence of IDH1 wt/IDH1 R132H heterodimer (O75874 whole entry, stated change not applied): as the sequence (O75874 whole entry R132H) above, with H132R counted along it
Sequence of IDH1 wt/IDH1 R132C heterodimer (O75874 whole entry R132C): as the sequence (O75874 whole entry R132H) above, with H132C counted along it
Sequence of IDH1 wt/IDH1 R132C heterodimer (O75874 whole entry, stated change not applied): as the sequence (O75874 whole entry R132H) above, with H132R counted along it
Sequence of IDH1 R132C (O75874 whole entry R132C): as the sequence (O75874 whole entry R132H) above, with H132C counted along it
T1 sequence (P48735 40-452 R140Q): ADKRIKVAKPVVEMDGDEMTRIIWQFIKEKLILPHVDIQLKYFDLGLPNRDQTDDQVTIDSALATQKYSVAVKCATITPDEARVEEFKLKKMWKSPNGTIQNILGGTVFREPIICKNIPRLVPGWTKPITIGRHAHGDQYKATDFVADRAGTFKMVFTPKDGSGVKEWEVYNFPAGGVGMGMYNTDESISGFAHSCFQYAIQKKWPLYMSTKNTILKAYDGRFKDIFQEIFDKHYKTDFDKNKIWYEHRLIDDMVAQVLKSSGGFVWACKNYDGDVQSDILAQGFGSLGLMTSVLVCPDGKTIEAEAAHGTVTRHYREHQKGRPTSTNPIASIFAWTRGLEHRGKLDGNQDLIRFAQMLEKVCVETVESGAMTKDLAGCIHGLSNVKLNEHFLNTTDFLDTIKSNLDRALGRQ

SMILES	IC50 [1]	IC50 (IDH2 R140Q [2])	IC50 [3]	IC50 [4]	IC50 (IDH2 R140Q [5])	IC50 [6]	IC50 [7]	IC50 (IDH1 R132C)	IC50 (HT1080 cells)
C[C@@H](Nc1cc(NC2CCC(F)(F)CC2)nc(-c2cccc(Cl)n2)n1)C(F)(F)F [Compound 418]	50 to 100 nM	< 50 nM							
C[C@@H](Nc1nc(NCCOc2ccccc2)nc(-c2cccc(C(F)(F)F)n2)n1)C1CC1 [Compound 246]	50 to 100 nM	< 50 nM	50 to 100 nM	100 to 1000 nM	50 to 100 nM	50 to 100 nM			
FC1(F)CCC(Nc2nc(NC3CCC(F)(F)C3)nc(-c3cccc(C(F)(F)F)n3)n2)C1 (centres unmarked) [Compound 31]					< 50 nM		< 50 nM	< 50 nM	< 50 nM
C[C@@H](Nc1nc(N[C@H](C)C2CC2)nc(-c2cccc(O)c2)n1)C1CC1 [Compound 11]					< 50 nM		100 to 1000 nM	50 to 100 nM	50 to 100 nM
FC1(F)CC2(CC(Nc3nc(NC4CC5(C4)CC(F)(F)C5)nc(-c4cccc(Cl)n4)n3)C2)C1 [Compound 265]	100 to 1000 nM	100 to 1000 nM	100 to 1000 nM	> 1000 nM					
CC(C)(C)OC(=O)N1CCC(Nc2nc(NC3CCC(F)(F)CC3)nc(-c3cccc(C(F)(F)F)n3)n2)CC1 [Compound 274]	100 to 1000 nM	100 to 1000 nM	100 to 1000 nM	> 1000 nM					

Further lines, results first:

IC50 [1]	IC50 (IDH2 R140Q [2])	IC50 [3]	IC50 [4]	IC50 (IDH2 R140Q [5])	IC50 [6]	IC50 [7]	IC50 (IDH1 R132C)	IC50 (HT1080 cells)	SMILES
100 to 1000 nM	100 to 1000 nM	100 to 1000 nM	> 1000 nM						C[C@@H](Nc1nc(NCC(C)(C)C#N)nc(-c2cccc(C(F)(F)F)n2)n1)C1CC1 [Compound 262]
100 to 1000 nM	50 to 100 nM	≥ 1000 nM	> 1000 nM	< 50 nM	< 50 nM				CC(C)Nc1nc(Nc2ccnc(C(C)(F)F)c2)nc(-c2nccc(C(F)(F)F)n2)n1 [Compound 298]
100 to 1000 nM	50 to 100 nM	100 to 1000 nM	> 1000 nM	< 50 nM	< 50 nM				CC(C)(C#N)CNc1nc(Nc2ccnc(C(C)(F)F)c2)nc(-c2cccc(C(F)(F)F)n2)n1 [Compound 267]
< 50 nM						50 to 100 nM	50 to 100 nM	50 to 100 nM	CC(Nc1nc(N[C@H](C)C2CC2)nc(-c2cccc(C(F)(F)F)n2)n1)c1cccc(F)c1 (some centres unmarked) [Compound 28]
